Active and inactive are the calls of the source.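 The calls were made as follows: active = EC50 below a set limit; inactive = the rest.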

The experiment has as its target Kappa-type opioid receptor (Homo sapiens) (UniProt P41145). Briefly: kappa opioid receptor activation by imaging – image-based, set 3, SAR follow-up (AID 488833). The conditions noted are these: U2OS KOR beta-arrestin-GFP translocation imaging.

Kappa-type opioid receptor (Homo sapiens), sequence (P41145 whole entry, looked up): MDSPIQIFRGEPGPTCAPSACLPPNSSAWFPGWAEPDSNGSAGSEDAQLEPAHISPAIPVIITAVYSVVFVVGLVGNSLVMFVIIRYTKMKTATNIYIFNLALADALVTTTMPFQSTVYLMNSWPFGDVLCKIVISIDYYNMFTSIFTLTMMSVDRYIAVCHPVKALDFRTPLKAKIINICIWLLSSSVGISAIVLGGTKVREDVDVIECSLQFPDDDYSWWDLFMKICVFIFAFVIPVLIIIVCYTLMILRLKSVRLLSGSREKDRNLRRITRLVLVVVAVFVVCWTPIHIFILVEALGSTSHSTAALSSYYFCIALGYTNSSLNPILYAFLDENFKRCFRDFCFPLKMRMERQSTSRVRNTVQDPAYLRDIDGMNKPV

For `Cc1ccccc1CSc1nnc(-c2ccccn2)n1Cc1cccs1`, the EC50 result was “inactive”.
